Experiment [1] deals with T1, Zinc finger protein mex-5 (Caenorhabditis elegans, UniProt Q9XUB2).
T1 sequence (Q9XUB2 whole entry): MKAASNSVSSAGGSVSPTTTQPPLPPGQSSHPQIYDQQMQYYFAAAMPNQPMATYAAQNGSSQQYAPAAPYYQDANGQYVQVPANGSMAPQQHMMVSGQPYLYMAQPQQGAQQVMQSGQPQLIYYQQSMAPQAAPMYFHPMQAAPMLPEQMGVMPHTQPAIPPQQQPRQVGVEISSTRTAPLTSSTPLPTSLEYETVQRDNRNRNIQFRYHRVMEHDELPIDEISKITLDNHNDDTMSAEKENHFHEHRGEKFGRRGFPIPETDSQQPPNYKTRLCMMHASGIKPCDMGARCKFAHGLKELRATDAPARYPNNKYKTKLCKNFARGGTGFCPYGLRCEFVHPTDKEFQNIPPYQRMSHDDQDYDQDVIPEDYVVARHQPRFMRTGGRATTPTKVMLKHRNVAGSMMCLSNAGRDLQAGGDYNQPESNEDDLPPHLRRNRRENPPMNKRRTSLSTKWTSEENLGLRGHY
As to the kind of experiment: MEX-5/TCR-2 RNA interaction inhibitors, dose response, biochemical, C. elegans, fluorescence polarization (AID 1960). On the technique in general: Polarisation of emitted light reports the rotation of a fluorescent probe.

Experiment [2] deals with T2, RNA-binding protein pos-1 (Caenorhabditis elegans, UniProt G5EF15).
T2 sequence (G5EF15 whole entry): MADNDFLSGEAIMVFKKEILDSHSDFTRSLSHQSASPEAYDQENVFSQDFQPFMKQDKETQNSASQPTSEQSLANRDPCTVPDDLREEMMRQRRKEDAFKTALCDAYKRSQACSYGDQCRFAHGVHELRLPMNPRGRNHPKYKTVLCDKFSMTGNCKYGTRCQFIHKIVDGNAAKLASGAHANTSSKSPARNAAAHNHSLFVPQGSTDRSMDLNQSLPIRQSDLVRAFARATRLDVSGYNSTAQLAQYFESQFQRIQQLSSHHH
The experiment can be described thus: inhibitors of POS-1/mex-3 RNA binding, dose response, biochemical, fluorescence polarization (AID 1964).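 Also: purified POS-1 fused to maltose binding protein made in E. coli; potency of compounds blocking POS-1 binding to fluorescent RNA.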

Experiment [3] is described as follows: HEp-2 cell cytotoxicity, dose response, cytotoxicity control for RSV inhibitor project, HTS (AID 2410). It is filed as functional. As to conditions: human respiratory syncytial virus.
Experiment [4] has as its target T3, Corticotropin-releasing factor receptor 2/Corticotropin-releasing factor-binding protein (Homo sapiens, UniProt P24387+Q13324).
T3 sequence (Q13324 whole entry): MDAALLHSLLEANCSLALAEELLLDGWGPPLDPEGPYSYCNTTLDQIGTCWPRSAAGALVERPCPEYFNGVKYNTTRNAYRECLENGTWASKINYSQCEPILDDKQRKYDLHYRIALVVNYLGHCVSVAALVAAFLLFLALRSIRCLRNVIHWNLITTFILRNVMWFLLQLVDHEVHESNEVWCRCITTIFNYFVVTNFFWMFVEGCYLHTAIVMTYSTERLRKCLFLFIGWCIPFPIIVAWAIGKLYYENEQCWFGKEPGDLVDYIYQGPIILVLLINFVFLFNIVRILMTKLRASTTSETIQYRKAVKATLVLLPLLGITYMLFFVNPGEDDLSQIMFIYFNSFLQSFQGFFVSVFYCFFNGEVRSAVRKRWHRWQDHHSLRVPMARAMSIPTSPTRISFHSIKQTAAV
T3 sequence (P24387 whole entry): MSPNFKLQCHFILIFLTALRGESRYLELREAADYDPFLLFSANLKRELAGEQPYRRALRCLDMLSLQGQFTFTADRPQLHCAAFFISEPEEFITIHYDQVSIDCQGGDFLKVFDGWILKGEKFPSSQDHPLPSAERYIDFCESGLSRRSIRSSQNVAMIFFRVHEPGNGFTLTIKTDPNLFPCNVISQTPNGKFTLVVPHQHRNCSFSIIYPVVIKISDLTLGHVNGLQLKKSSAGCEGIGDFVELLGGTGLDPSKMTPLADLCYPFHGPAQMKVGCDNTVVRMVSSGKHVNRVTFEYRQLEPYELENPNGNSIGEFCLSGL
The experiment can be described thus: activators of CRF receptor 2 with binding protein – uHTS hits, confirmation (AID 602473). The format is functional. The conditions noted are these: read-out: EC50_Mean.

Experiment [5] has as its target Cytochrome P450 2C9 (Homo sapiens, UniProt P11712).
For experiment [6], the target named is Cytochrome P450 2C19 (Homo sapiens, UniProt P33261). As to the kind of experiment: Cytochrome panel assay with activity outcomes. Panel member name: p450-cyp2c19 Compounds with AC50 equal or less than 10 uM are considered active. The format is functional. The conditions noted are these: read-out: AC50.
Cytochrome P450 2C19, sequence (P33261 whole entry): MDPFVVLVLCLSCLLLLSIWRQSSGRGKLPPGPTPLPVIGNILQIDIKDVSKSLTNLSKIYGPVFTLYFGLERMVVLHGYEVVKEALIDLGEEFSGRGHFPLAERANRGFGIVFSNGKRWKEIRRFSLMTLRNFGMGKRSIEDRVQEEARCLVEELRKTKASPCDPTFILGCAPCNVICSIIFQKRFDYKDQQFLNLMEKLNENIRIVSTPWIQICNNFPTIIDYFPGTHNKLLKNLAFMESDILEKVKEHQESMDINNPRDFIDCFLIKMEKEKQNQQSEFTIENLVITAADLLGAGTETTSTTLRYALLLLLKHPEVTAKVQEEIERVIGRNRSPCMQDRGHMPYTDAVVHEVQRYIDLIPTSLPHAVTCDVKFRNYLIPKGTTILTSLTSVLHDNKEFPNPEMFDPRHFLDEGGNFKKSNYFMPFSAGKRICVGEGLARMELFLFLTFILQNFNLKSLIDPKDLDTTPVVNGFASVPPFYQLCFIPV
The target of experiment [7] is T4, Cytochrome P450 1A2 (Homo sapiens, UniProt P05177).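 Also: PubChem cytochrome P450 panel assay, CYP1A2 panel member.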
T4 sequence (P05177 whole entry): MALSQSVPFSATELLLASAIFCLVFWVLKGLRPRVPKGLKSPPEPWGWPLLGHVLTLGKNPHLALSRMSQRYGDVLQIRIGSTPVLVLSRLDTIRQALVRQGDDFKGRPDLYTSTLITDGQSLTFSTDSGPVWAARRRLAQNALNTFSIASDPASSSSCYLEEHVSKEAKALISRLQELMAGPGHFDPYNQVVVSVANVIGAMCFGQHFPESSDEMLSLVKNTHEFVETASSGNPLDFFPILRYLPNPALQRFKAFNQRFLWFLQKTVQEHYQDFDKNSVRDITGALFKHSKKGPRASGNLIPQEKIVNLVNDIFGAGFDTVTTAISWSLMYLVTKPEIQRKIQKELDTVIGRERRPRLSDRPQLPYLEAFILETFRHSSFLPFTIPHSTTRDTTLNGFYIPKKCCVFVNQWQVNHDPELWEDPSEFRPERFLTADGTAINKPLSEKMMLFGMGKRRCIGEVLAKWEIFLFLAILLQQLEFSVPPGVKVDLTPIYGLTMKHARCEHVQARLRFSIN

The target of experiment [8] is T5, Heat shock factor protein 1 (Mus musculus, UniProt P38532).
T5 sequence (P38532 whole entry): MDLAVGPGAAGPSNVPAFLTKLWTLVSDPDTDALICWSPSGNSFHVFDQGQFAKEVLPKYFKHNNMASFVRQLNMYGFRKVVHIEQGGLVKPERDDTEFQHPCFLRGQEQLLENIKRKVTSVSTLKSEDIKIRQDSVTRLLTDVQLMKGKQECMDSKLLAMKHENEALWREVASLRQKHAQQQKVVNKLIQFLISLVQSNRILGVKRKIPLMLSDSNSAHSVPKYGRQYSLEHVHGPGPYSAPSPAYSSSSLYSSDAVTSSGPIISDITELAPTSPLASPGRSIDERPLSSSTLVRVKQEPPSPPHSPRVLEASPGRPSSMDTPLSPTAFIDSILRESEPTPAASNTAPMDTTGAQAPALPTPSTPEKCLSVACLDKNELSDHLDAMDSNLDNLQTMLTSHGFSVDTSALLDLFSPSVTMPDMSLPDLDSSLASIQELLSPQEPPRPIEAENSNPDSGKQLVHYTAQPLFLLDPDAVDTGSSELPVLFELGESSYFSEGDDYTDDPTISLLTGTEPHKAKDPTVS
As to the kind of experiment: HSF1 potentiators in luciferase reporter cells, confirmation, cell-based, NIH3T3, luminescence, dose retest (AID 435004).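 Also: stress induced by proteasome inhibitor MG132 added 30 min after compound; luciferase reporter driven by HSF1 response element in NIH3T3 cells; actives raise luminescence as potentiators of the MG132 stress response.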 The format is functional. In general terms: Reporter assays use an easily measured gene product as a stand-in for the process of interest.

In experiment [9] the target is Cytochrome P450 2D6 (Homo sapiens, UniProt P10635).
Cytochrome P450 2D6, sequence (P10635 whole entry): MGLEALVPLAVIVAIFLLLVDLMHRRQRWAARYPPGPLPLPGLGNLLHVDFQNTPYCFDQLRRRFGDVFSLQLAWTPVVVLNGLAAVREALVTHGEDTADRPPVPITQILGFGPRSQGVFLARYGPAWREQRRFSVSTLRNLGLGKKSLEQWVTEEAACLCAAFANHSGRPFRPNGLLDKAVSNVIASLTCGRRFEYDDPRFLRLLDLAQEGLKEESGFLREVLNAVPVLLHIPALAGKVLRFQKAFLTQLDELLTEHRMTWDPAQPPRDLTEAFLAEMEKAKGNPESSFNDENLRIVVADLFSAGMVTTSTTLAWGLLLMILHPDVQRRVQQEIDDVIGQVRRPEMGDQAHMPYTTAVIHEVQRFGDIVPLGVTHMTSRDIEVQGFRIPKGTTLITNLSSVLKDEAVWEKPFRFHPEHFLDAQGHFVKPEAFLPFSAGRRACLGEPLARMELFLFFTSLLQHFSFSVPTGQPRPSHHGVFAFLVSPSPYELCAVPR

SMILES strings stand for the structures. Calls of active or inactive are those of the source.

Cytochrome P450 2C9, sequence (P11712 whole entry): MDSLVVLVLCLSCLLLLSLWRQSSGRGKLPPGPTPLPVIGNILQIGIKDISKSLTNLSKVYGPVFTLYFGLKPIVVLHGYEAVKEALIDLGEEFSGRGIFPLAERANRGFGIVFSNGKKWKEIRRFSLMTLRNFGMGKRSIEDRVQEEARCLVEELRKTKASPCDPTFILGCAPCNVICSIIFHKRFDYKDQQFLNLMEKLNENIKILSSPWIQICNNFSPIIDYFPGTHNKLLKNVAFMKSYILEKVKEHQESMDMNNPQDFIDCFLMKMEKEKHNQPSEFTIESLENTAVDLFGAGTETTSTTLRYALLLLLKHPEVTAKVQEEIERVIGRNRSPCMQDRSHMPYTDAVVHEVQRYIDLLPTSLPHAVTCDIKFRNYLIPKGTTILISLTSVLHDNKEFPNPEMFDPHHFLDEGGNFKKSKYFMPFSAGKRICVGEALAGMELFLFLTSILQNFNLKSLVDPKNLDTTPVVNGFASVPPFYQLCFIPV

For the compound `NC(=O)[C@@H]1CCCN1Cc1c(C(=O)N2CCc3ccccc3C2)nc2ccc(Cl)cn12`, the EC50 is 47 µM (active) in experiment [1] and 61.7 µM (active) in experiment [2]. As usually defined, the CC50 is the concentration that lowers cell viability or growth by half. For the compound `Cc1nc2ccc3nc(NC(=O)C4COc5ccccc5O4)sc3c2s1` (stereo unspecified), the CC50 in experiment [3] is 41.4 µM (active). In the case of `CC(C(=O)Nc1ccc2c(c1)OCCO2)c1ccc([N+](=O)[O-])cc1` (stereo unspecified), in experiment [4], the EC50 is 10.7 µM (active). By AC50 is commonly meant the concentration giving half of the maximal activity seen. `COc1ccc(C2C(C(=O)N3CCOCC3)c3ccccc3C(=O)N2c2ccc(OC)cc2)cc1` (stereo unspecified): the half-maximal activity concentration (AC50) in experiment [5] is 0.501 µM (inconclusive). For `COC(=O)N1CCC[C@@]2(CCN(c3ccccn3)C2)C1`, the AC50 in experiment [6] is 39.8 µM (inconclusive); in [5], 20 µM (inconclusive).

For the compound `Cc1cc(C)c(S(=O)(=O)n2ccc(-c3ccc(OCCN(C)c4ccccn4)cc3)n2)c(C)c1`, the AC50 was 0.631 µM (inconclusive) in experiment [6], 14.1 µM (inconclusive) in experiment [7] and 1.78 µM (inconclusive) in [5]. The EC50 in [8] was > 260 µM (inactive). Regarding `CCOc1ccc(NC2c3ccccc3C(=O)N2Cc2ccc3c(c2)OCO3)cc1` (stereo unspecified), the cytotoxic concentration (CC50) in experiment [3] is 14.6 µM (active).

Take `Cc1c(OCC(=O)NCc2ccccn2)ccc2c3c(c(=O)oc12)CCCC3`: the cytotoxic concentration (CC50) in experiment [3] was 21.2 µM (active). Consider `COc1ccccc1NC(=O)COc1ccc(Br)cc1CO`, for which, in experiment [3], the half-maximal cytotoxic concentration (CC50) was > 50 µM (active). As for `O=C1C(Cl)=C(Nc2ccccc2O)C(=O)N1c1ccccc1`, the values for the EC50 in experiment [1] and in experiment [2] were 73 µM (inconclusive) and > 300 µM (not active), respectively. For `COC(=O)CCC(=O)OC1(C)C(=O)C=C2C=C(c3ccsc3)OC=C2C1=O` (stereo unspecified) the same measures were 26.7 µM (inconclusive) and 36.8 µM (active). As to `CCCS(=O)(=O)N1CCCC(C(=O)NCCCN2CCN(c3cccc(Cl)c3)CC2)C1` (stereo unspecified), the AC50 in experiment [6] is 14.1 µM (inconclusive); in experiment [7] it was 0.00631 µM (inconclusive); in [5], 28.2 µM (inconclusive).

`Cc1ccc2sc(O)nc2c1`: in [3], the cytotoxic concentration (CC50) was 19.7 µM (active). In the case of `CCN1/C(=C2/SC(=S)N(NC(C)=O)C2=O)Sc2ccccc21`, the figures for the EC50 in experiment [1] and in experiment [2] were > 300 µM (not active) and 60.7 µM (active), respectively. For `COC(=O)CCCC1=CC2=CC(=O)C(C)(OC(=O)c3cccs3)C(=O)C2=CO1` (stereo unspecified) the same measures were 16.5 µM (active) and 14 µM (active). As to `O=S(=O)(O)c1cc(O)c2c(O)c(/N=N\c3cccc4ccccc34)c(S(=O)(=O)O)cc2c1`, the half-maximal activity concentration (AC50) in [5] is 7.94 µM (inconclusive). As for `Cc1ccc(-c2ccc(/C=N/n3cnnc3)o2)cc1Cl`, the cytotoxic concentration (CC50) in experiment [3] is 49.7 µM (active). Consider `COc1ccc2c(c1)C(=O)N(c1ccccc1)C(=O)C2`, for which the concentration at half-maximal activity (AC50) in [7] is 25.1 µM (inconclusive); in experiment [5], 22.4 µM (inconclusive).

As for `N#Cc1nc(COc2ccccc2Cl)oc1N1CCCC1`, in experiment [3], the CC50 is 41.5 µM (active). For `O=C1NC(=O)N(c2ccc(Br)cc2)C(=O)/C1=C/NCCN1CCCCC1`, the figures for the EC50 in experiment [1] and in experiment [2] were 106 µM (active) and > 300 µM (not active), respectively. On to `OCCOc1ccc(C2=NCCO2)cc1`, for which the EC50 in experiment [1] and in [2] was > 300 µM (not active) in each case.

`COC(=O)COc1ccc(Oc2nc(SC)nc(N(C)C)n2)nn1`: the EC50 in [4] was > 53 µM (inactive). On the same count and under the same terms, as for `CCOC(=O)/C(C#N)=C(C)/C=C1\Sc2ccccc2N1CC`, the figure is 18.4 µM (active). For the compound `COc1cc(C2NC(S)=NC(C)=C2C(=O)OC(C)C)ccc1OC(C)C` (stereo unspecified), the EC50 in experiment [1] and in [2] was > 300 µM (not active) in each case. As to `COc1ccc2[nH]c(SCC(=O)c3ccco3)nc2c1`, the AC50 in experiment [9] is 17.8 µM (inconclusive); in experiment [5], 31.6 µM (inconclusive). For `COC(=O)c1cc2sc(Cl)cc2n1CC(=O)Nc1ccc(OC)c(OC)c1OC`, the EC50 in [4] is > 53 µM (inactive). As for `CCCn1c(=N)c(C(=O)NCC2CCCO2)cc2c(=O)n3cccc(C)c3nc21` (stereo unspecified), the EC50 in experiment [1] and in [2] was > 300 µM (not active) each time.

In the case of `COC(=O)N1CCC2(CCCN(c3ccccn3)C2)CC1`, the concentration at half-maximal activity (AC50) in [9] was 39.8 µM (inconclusive); in [7] it was 25.1 µM (inconclusive); in experiment [5], 31.6 µM (inconclusive). `Cc1cc(=O)nc2c3ccccc3n(CC(=O)Nc3ccccc3Br)n12`: the EC50 is 103 µM (active) in experiment [1] and > 300 µM (not active) in [2]. On to `COc1ccccc1Cn1c(=S)[nH]c2cc(C(=O)N3CCN(C)CC3)ccc2c1=O`, for which the concentration at half-maximal activity (AC50) in experiment [6] was 39.8 µM (inconclusive); in experiment [5] it was 0.112 µM (inconclusive). For `CCc1nnc(S)n1/N=C/c1ccc2c(c1)OCO2`, the concentration at half-maximal activity (AC50) is 22.4 µM (inconclusive) in [9] and 35.5 µM (inconclusive) in [5]. On to `CCC(=O)Nc1cc(-c2nn(C)c(=O)c3ccccc23)ccc1N1CCCCC1`, for which the AC50 was 11.2 µM (inconclusive) in experiment [9], 28.2 µM (inconclusive) in experiment [7] and 5.01 µM (inconclusive) in experiment [5]. As for `O=C(CSCc1c(Cl)cccc1Cl)NCc1cccnc1`, the half-maximal activity concentration (AC50) in experiment [5] is 7.94 µM (inconclusive).

`O=C(CCN1CCCCC1)c1csc2ccccc12`: the AC50 in experiment [7] and in experiment [5] was 3.16 µM (inconclusive) throughout. For `Cc1nc2ccccc2c2oc(C(=O)Nc3ccc4c(c3)OCCO4)cc12`, the EC50 in experiment [1] is 25.9 µM (inconclusive); in experiment [2] it was 16.6 µM (active).
